Converted amounts (≈) assume the structure as drawn.
Assays:
[1] = test system: human red blood cells (hRBC's); assay: Hemolysis assay; type: cell-based
In short: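 Washed human RBCs (K2 EDTA) as 5% v/v suspension in PBS, mixed 1:1 with two-fold serial peptide dilutions (250–1.6 μg/ml, or 1 mg/ml–6.3 μg/ml for lipidated γ-AApeptides) in PBS; 1 h at 37 °C. Supernatant OD 360 nm, normalised to PBS (0%) and 0.2% Triton-X-100 (100%); H50 = concentration giving 50% hemolysis.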

[2] = test system: methicillin-resistant S. aureus (ATCC 33592); conditions: Table 3
B. anthracis = conditions: Table 3
C. albicans (ATCC 10231) = conditions: ATCC 10231
[3] = test system: vancomycin-resistant E. faecalis (ATCC 700802); conditions: Table 3
S. aureus ATCC 33592 = type: cell-based; conditions: serial passage at half-MIC, 17 days
[4] = test system: multi-drug resistant S. epidermidis (RP62A); conditions: Table 3
[5] = test system: K. pneumoniae (ATCC 13383)
[6] = test system: multi-drug resistant P. aeruginosa ATCC 27853; conditions: ATCC 27853
[7] = test system: methicillin-resistant S. aureus (MRSA, USA100 lineage); conditions: Table 3

Q: Which “Hemolysis (H50)” value [1] does the source give for `CCCCCCCCCCCCCCCC(=O)N[C@@H](C)CN(CC(=O)N[C@@H](C)CN(CC(=O)N[C@@H](CC(C)C)CN(CC(=O)N[C@@H](CC(C)C)CN(CC(=O)N[C@@H](CC(C)C)CN(CC(N)=O)C(=O)CCCN)C(=O)CCCN)C(=O)CCCN)C(C)=O)C(C)=O` [γAA2] here?
A: >500 µg/mL

Q: And the “MIC, B. subtilis” value (B. subtilis (BR151))?
A: 2.5 mg/L (≈ 1.94 µM)

Q: And the “MIC, S. aureus (methicillin-resistant)” value [2]?
A: 4 mg/L (≈ 3.1 µM)

Q: And the “MIC, B. anthracis (lethal bioweapon)” value (B. anthracis)?
A: 5 mg/L (≈ 3.87 µM)

Q: What about the “MIC, E. coli” value (E. coli (JM109)) of the same compound?
A: 2.5 mg/L (≈ 1.94 µM)

Q: And the “MIC, Fungi C. albicans” value (C. albicans (ATCC 10231))?
A: 5 mg/L (≈ 3.87 µM)

Q: What about the “MIC, E. faecalis (vancomycin-resistant)” value [3] of the same compound?
A: 5 mg/L (≈ 3.87 µM)

Q: What about the “development of resistance (change in MIC over 17 passages), in words” value (S. aureus ATCC 33592) of the same compound?
A: did not cause resistance

Q: And the “MIC, S. epidermidis (multi-drug resistant)” value [4]?
A: 4 mg/L (≈ 3.1 µM)

Q: And the “MIC, K. pneumoniae (causing pneumonia)” value [5]?
A: 5 mg/L (≈ 3.87 µM)

Q: What about the “MIC, P. aeruginosa” value [6] of the same compound?
A: 25 to 50 mg/L

Q: What about the “MIC, MRSA USA100” value [7] of the same compound?
A: 10 mg/L (≈ 7.74 µM)
